From patent US5506256A, “Proline derivatives possessing prolyl endopeptidase-inhibitory activity” (Yoshitomi Pharmaceutical Industries, Ltd., priority 1990, dated 1996)

Assays:
[1] = target: T1, cathepsin B (Bos taurus, UniProt P07688); experiment: Determination of cathepsin B-inhibitory activity; type: biochemical, bovine; details: read-out: inhibition rate, cathepsin B
T1 construct: purchased Sigma; host or cells: bovine spleen
Experimental: (§1) The methods for the measurement of inhibitory activities against various proteases and the method for calculating the inhibition rate are as follows.
Determination of cathepsin B-inhibitory activity
Similarly, by following the procedure mentioned above, but employing a 100 mM sodium phosphate buffer (pH 6.0; containing 1.33 mM EDTA Na2) as a buffer for measurement, a 0.02 μM solution of cathepsin B (derived from bovine spleen, Sigma) in the same buffer as an enzyme solution and a 200 μM solution of 7-(N-benzyloxycarbonyl-phenylaranyl-arginyl)-4-methylcoumarinamide (Peptide Institute, Inc.) in the same buffer as a substrate solution, each fluorescence (f1, f2 and f3) was determined, respectively.
(§2) Using the fluorescence x1, x2 and x3 measured in the abovementioned manner, the inhibitory rate against various proteases was calculated by the following formula where x stands for b, c, d, e or f: [formula]

[2] = tested on: leucine aminopeptidase; experiment: Determination of leucine aminopeptidase-inhibitory activity; type: biochemical, swine; parameters: unit not given here
Experimental: as §1
Determination of leucine aminopeptidase-inhibitory activity
Similarly, by following the procedure mentioned above, but employing a 50 mM Tris-HCl buffer (pH 8.0) as a buffer for measurement, a […] solution of leucine aminopeptidase (derived from swine kidney, Sigma) in the same buffer as an enzyme solution and a 200 μM solution of 7-leucyl-4-methyl-coumarinamide (Peptide Institute, Inc.) in the same buffer as a substrate solution, each fluorescence (d1, d2 and d3) was determined, respectively.
as §2

[3] = target: T2, prolyl endopeptidase (Rattus norvegicus, UniProt O70196); experiment: Prolyl endopeptidase-inhibitory activity; type: biochemical; details: for inhibition at 1 µM / inhibition at 0.1 µM: read-out: inhibition rate, prolyl endopeptidase; for IC50: prolyl endopeptidase extracted from rat brain, pH 7.0, 30° C., read-out: IC50
T2 construct: prolyl endopeptidase extracted from rat brain; from tissue; host or cells: rat brain
T2 sequence (O70196 whole entry): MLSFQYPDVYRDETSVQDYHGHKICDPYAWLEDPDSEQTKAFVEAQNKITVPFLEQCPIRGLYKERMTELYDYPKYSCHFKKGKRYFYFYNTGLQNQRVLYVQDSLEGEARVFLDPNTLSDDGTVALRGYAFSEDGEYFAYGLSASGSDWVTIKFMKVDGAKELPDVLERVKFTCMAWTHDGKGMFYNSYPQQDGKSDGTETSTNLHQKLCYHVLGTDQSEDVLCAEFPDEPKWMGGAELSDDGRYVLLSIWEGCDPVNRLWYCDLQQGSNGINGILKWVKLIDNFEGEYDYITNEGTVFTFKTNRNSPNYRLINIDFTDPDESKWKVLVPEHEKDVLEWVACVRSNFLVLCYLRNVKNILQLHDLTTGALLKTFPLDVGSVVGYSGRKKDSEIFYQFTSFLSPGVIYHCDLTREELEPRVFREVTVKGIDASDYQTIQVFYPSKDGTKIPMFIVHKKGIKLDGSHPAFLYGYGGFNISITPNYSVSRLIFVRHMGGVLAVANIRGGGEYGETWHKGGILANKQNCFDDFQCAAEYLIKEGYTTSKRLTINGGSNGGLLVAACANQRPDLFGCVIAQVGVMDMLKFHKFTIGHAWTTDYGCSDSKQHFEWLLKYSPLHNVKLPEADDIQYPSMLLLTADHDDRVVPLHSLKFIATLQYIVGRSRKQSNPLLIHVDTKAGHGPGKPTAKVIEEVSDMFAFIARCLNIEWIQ
Experimental: Prolyl endopeptidase-inhibitory activity
A mixture of a 0.1M potassium sodium phosphate buffer (pH 7.0) (2675 μl), a solution of the compounds of the present invention in a 0.1M potassium sodium phosphate buffer (pH 7.0) (100 μl) and a solution of prolyl endopeptidase extracted from rat brain in a 25 mM sodium phosphate buffer (100 μl) [123 unit/1, pH 6.8, containing 1 mM dithiothreitol and 0.5 mM EDTA, prepared by the method described in J. Neurochem., 35, 527 (1980)]was preincubated at 30° C. for 30 minutes. Thereto was added a 0.2 mM solution of 7-(N-succinyl-glycyl-prolyl)-4-methylcoumarinamide (Peptide Institute, INC.) in a 0.1M potassium sodium phosphate buffer (pH 7.0) (125 μl), and the mixture was incubated at 30° C. for 1 hour. The reaction mixture was immersed in ice (0° C.) to terminate the reaction, and the fluorescence (a1) was determined ten minutes later (excitation at 370 nm and emission at 440 nm). Concurrently, there were conducted the experiment wherein, in the above system, the prolyl endopeptidase solution was substituted for a 25 mM sodium phosphate buffer (pH 6.8, containing 1 mM dithiothreitol and 0.5 mM EDTA) and the experiment wherein the solution of the compounds of the present invention was substituted for a 0.1M potassium sodium phosphate buffer (pH 7.0). Each fluorescence (a2 and a3) was determined respectively [See Tanpakushitsu Kakusan Koso, 29, 127 (1984)]. The prolyl endopeptidase-inhibition rate was calculated by the following formula, and IC50, a concentration of a compound producing 50% inhibition, was estimated by semilogarithmic graph paper. [formula] […]

[4] = target: T3, elastase (Sus scrofa, UniProt P00772); experiment: Determination of elastase-inhibitory activity; type: biochemical, swine; details: read-out: inhibition rate, elastase
T3 construct: purchased Sigma; host or cells: swine pancreas
T3 sequence (P00772 27-266): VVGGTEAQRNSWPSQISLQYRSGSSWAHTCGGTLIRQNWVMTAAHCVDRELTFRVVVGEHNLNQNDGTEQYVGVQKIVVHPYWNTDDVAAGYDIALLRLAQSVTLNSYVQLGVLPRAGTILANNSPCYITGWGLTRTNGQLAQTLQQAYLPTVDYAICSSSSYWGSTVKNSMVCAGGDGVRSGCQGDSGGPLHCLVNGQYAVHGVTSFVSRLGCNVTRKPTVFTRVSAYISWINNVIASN
Experimental: as §1
Determination of elastase-inhibitory activity
Similarly, by following the procedure mentioned above, but employing a 1 mM Tris-HCl buffer (pH 8.5) as a buffer for measurement, a 0.2 μM solution of elastase (derived from swine pancreas, Sigma) in the same buffer as an enzyme solution and a 200 μM solution of 7-(N-succinyl-aranyl-prolyl-aranyl)-4-methylcoumarinamide (Peptide Institute, Inc.) in the same buffer as a substrate solution, each fluorescence (e1, e2 and e3) was determined, respectively.
as §2

[5] = target: T4, trypsin (Bos taurus, UniProt P00760); experiment: Determination of trypsin-inhibitory activity; type: biochemical, bovine; details: read-out: inhibition rate, trypsin
T4 construct: purchased Sigma; host or cells: bovine pancreas
T4 sequence (P00760 24-246): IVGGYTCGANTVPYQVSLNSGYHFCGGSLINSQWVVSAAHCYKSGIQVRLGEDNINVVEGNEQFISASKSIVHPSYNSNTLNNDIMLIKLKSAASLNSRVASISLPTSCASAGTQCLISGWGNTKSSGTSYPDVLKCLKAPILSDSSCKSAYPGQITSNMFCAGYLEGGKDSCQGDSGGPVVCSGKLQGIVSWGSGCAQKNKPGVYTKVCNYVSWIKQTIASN
Experimental: as §1
Determination of trypsin-inhibitory activity
In the present invention, a 50 mM Tris-HCl buffer (pH 8.0) was employed as a buffer for measurement.
To a mixture of the above-mentioned buffer (850 μl), a solution of the compounds of the present invention in the same buffer (50 μl) and a 0.02 μM solution of trypsin (derived from bovine pancreas, Sigma) in the same buffer (50 μl) was added a 200 μM solution of 7-(prolyl-phenylaranyl-arginyl)-4-methylcoumarinamide (Peptide Institute, Inc.) in the same buffer (50 μl),and the mixture was incubated at 30° C. for 1 hour. The reaction mixture was immersed in ice (0° C.) to terminate the reaction, and the fluorescence (b1) was determined 1 hour later (excitation at 370 nm and emission at 440 nm). Concurrently, there were conducted the experiment wherein, in the system above, the trypsin solution was substituted for a buffer alone, and the experiment wherein the solution of the compounds of the present invention was substituted for a buffer above. Each fluorescence (b2 and b3) was determined respectively.
as §2

[6] = target: T5, chymotrypsin (Bos taurus, UniProt P00766); experiment: Determination of chymotrypsin-inhibitory activity; type: biochemical, bovine; details: read-out: inhibition rate, chymotrypsin
T5 construct: purchased Sigma; host or cells: bovine pancreas
Experimental: as §1
Determination of chymotrypsin-inhibitory activity
Similarly, by following the procedure mentioned above, but employing a 50 mM Tris-HCl buffer (pH 8.0) as a buffer for measurement, a 0.2 μM solution of chymotrypsin (derived from bovine pancreas, Sigma) in the same buffer as an enzyme solution and a […] solution of 7-(N-succinyl-leucyl-leucyl-valyl-tyrosyl)-4-methylcoumarinamide (Peptide Institute, Inc.) in the same buffer as a substrate solution, each fluorescence (c1, c2 and c3) was determined, respectively.
as §2

COc1ccc([S@+]([O-])CC(=O)[C@@H]2CCCN2C(=O)[C@@H]2CCCN2C(=O)OCc2ccccc2)cc1 [Compound 12, (2S)-1-(N-Benzyloxycarbonyl-L-prolyl)-2-{[(R)-4-methoxy-phenylsulfinyl]acetyl}pyrrolidine]
inhibition at 1 µM [1]: 0% | inhibition rate, leucine aminopeptidase ([2]; 1 μM): 0 | inhibition at 1 µM [3]: 92% | IC50 [3]: 20 nM | inhibition at 1 µM [4]: 0% | inhibition at 1 µM [5]: 0% | inhibition at 1 µM [6]: 0%

Cc1ccc([S@@+]([O-])CC(=O)[C@@H]2CCCN2C(=O)[C@@H]2CCCN2C(=O)OCc2ccccc2)cc1 [Compound 13, (2S)-1-(N-Benzyloxycarbonyl-L-prolyl)-2-{[(S)-p-tolyl-sulfinyl]acetyl}pyrrolidine]
inhibition at 0.1 µM [1]: 0% | inhibition rate, leucine aminopeptidase ([2]; 0.1 μM): 0 | inhibition at 0.1 µM [3]: 98% | IC50 [3]: 0.3 nM | inhibition at 0.1 µM [4]: 0% | inhibition at 0.1 µM [5]: 0% | inhibition at 0.1 µM [6]: 0%

Cc1ccc([S@+]([O-])CC(=O)[C@@H]2CCCN2C(=O)[C@@H]2CCCN2C(=O)OCc2ccccc2)cc1 [Compound 14]
inhibition at 0.1 µM [1]: 0% | inhibition rate, leucine aminopeptidase ([2]; 0.1 μM): 0 | inhibition at 0.1 µM [3]: 97% | IC50 [3]: 1.5 nM | inhibition at 0.1 µM [4]: 0% | inhibition at 0.1 µM [5]: 0% | inhibition at 0.1 µM [6]: 0%

COc1ccc([S@@+]([O-])CC(=O)[C@@H]2CCCN2C(=O)[C@@H]2CCCN2C(=O)CCc2ccccc2)cc1 [Compound 15]
inhibition at 0.1 µM [1]: 0% | inhibition rate, leucine aminopeptidase ([2]; 0.1 μM): 0 | inhibition at 0.1 µM [3]: 98% | IC50 [3]: 2.5 nM | inhibition at 0.1 µM [4]: 0% | inhibition at 0.1 µM [5]: 0% | inhibition at 0.1 µM [6]: 0%

Cc1ccc([S@@+]([O-])CC(=O)[C@@H]2CCCN2C(=O)[C@@H]2CCCN2C(=O)CCc2ccccc2)cc1 [Compound 16, (2S)-1-[N-(3-Phenylpropionyl)-L-prolyl]-2-{[(S)-p-tolylsulfinyl]acetyl}pyrrolidine]
inhibition at 0.1 µM [1]: 0% | inhibition rate, leucine aminopeptidase ([2]; 0.1 μM): 0 | inhibition at 0.1 µM [3]: 99% | IC50 [3]: 1.5 nM | inhibition at 0.1 µM [4]: 0% | inhibition at 0.1 µM [5]: 0% | inhibition at 0.1 µM [6]: 0%

O=C(C[S@+]([O-])c1ccccc1)[C@@H]1CCCN1C(=O)[C@@H]1CCCN1C(=O)CCc1ccccc1 [Compound 17, (2S)-1-[N-(3-Phenylpropionyl)-L-prolyl]-2-{[(S)-phenylsulfinyl]acetyl}pyrrolidine]
inhibition at 0.1 µM [1]: 0% | inhibition rate, leucine aminopeptidase ([2]; 0.1 μM): 0 | inhibition at 0.1 µM [3]: 99% | IC50 [3]: 0.5 nM | inhibition at 0.1 µM [4]: 0% | inhibition at 0.1 µM [5]: 0% | inhibition at 0.1 µM [6]: 0%

COc1ccc(OCC(=O)[C@@H]2CCCN2C(=O)[C@@H]2CCCN2C(=O)OCc2ccccc2)cc1 [Compound 18, (2S)-1-(N-Benzyloxycarbonyl-L-prolyl)-2-[(4-methoxyphenoxy)-acetyl]pyrrolidine]
inhibition at 0.1 µM [1]: 0% | inhibition rate, leucine aminopeptidase ([2]; 0.1 μM): 0 | inhibition at 0.1 µM [3]: 93% | IC50 [3]: 1.5 nM | inhibition at 0.1 µM [4]: 0% | inhibition at 0.1 µM [5]: 0% | inhibition at 0.1 µM [6]: 0%

O=C(COc1ccccc1)[C@@H]1CCCN1C(=O)[C@@H]1CCCN1C(=O)CCc1ccccc1 [Compound 19, (2S)-2-(Phenoxyacetyl)-1-[N-(3-phenylpropionyl)-L-prolyl]-pyrrolidine]
inhibition at 1 µM [1]: 0% | inhibition rate, leucine aminopeptidase ([2]; 1 μM): 0 | inhibition at 1 µM [3]: 98% | IC50 [3]: 15 nM | inhibition at 1 µM [4]: 0% | inhibition at 1 µM [5]: 0% | inhibition at 1 µM [6]: 0%

COc1ccc(OCC(=O)[C@@H]2CCCN2C(=O)[C@@H]2CCCN2C(=O)CCc2ccccc2)cc1 [Compound 20, (2S)-2-[(4-Methoxyphenoxy)acetyl]-1-[N-(3-phenylpropionyl)-L-prolyl]pyrrolidine]
inhibition at 1 µM [1]: 0% | inhibition rate, leucine aminopeptidase ([2]; 1 μM): 0 | inhibition at 1 µM [3]: 96% | IC50 [3]: 40 nM | inhibition at 1 µM [4]: 0% | inhibition at 1 µM [5]: 0% | inhibition at 1 µM [6]: 0%

O=C(COc1ccccc1)[C@@H]1CCCN1C(=O)[C@@H]1CCCN1C(=O)NCc1ccccc1 [Compound 21, (2S)-1-(N-Benzylaminocarbonyl-L-prolyl)-2-(phenoxyacetyl)-pyrrolidine]
inhibition at 1 µM [1]: 0% | inhibition rate, leucine aminopeptidase ([2]; 1 μM): 0 | inhibition at 1 µM [3]: 99% | IC50 [3]: 15 nM | inhibition at 1 µM [4]: 0% | inhibition at 1 µM [5]: 0% | inhibition at 1 µM [6]: 0%

COc1ccc(OCC(=O)[C@@H]2CCCN2C(=O)[C@@H]2CCCN2C(=O)NCc2ccccc2)cc1 [Compound 22, (2S)-1-(N-Benzylaminocarbonyl-L-prolyl)-2-(4-methoxyphenoxyacetyl)pyrrolidine]
inhibition at 1 µM [1]: 0% | inhibition rate, leucine aminopeptidase ([2]; 1 μM): 0 | inhibition at 1 µM [3]: 97% | IC50 [3]: 25 nM | inhibition at 1 µM [4]: 0% | inhibition at 1 µM [5]: 0% | inhibition at 1 µM [6]: 0%

COc1ccc([S@@+]([O-])CC(=O)[C@@H]2CCCN2C(=O)[C@@H]2CCCN2C(=O)NCc2ccccc2)cc1 [Compound 23, (2S)-1-(N-Benzylaminocarbonyl-L-prolyl)-2-{[(S)-4-methoxyphenylsulfinyl]acetyl}pyrrolidine]
inhibition at 1 µM [1]: 0% | inhibition rate, leucine aminopeptidase ([2]; 1 μM): 0 | inhibition at 1 µM [3]: 99% | IC50 [3]: 15 nM | inhibition at 1 µM [4]: 0% | inhibition at 1 µM [5]: 0% | inhibition at 1 µM [6]: 0%
